Data published in US20060148828A1, “Combination comprising a CDK inhibitor and a topoisomerase 1 inhibitor for the treatment of cancer and other proliferative diseases” (Cyclacel Limited, priority 2003, published 2006).
Several values for one entry are separate records, joined by “and”; a condition that tells them apart may be missing. Identical values can stand only once.

What was measured:
in vivo = settings: Swiss nu/nu, mouse, po
[1] = alone or in combination with chemotherapy, three to six 4-day cycles
[2] = tested on: HT29 colon tumor xenografts; assay: In vivo drug efficacy on xenografts in nude mice; design: species or system Swiss nu/nu mice; settings: for CR nb (complete regression) / Cures nb (tumour-free mice at end) / PR nb (partial response): 9 mice; for TGI % (day): day 21; for Calc growth delay (TGD treated − TGD control): doses as in Treatment column; for Fraction T/C (treated RTV/control RTV × 100): mouse, in vivo
wt-p53 HT29-A4 cells [3] = assay: Cell cycle progression (BrdU incorporation); settings: 1 μM CPT-11, up to 36 h, G0/G1 synchronized cells
Procedure: (§1) Cells were maintained in DMEM medium supplemented with 10% fetal calf serum, and under continuous selection with geneticin for the wt-p53 HT29-A4 cell line.
(§2) Cells were synchronized in G0/G1 by serum starvation for 48 h. Addition of serum and fresh medium released cells from the block and promoted them to cycle. Cell cycle progression was analyzed by BrdU (5-bromo-2′-deoxiuridine; Sigma) incorporation as described (13).

wt-p53 HT29-A4 cells [4] = assay: Western blot of apoptosis markers (PARP p85, cleaved caspase-3); format: cell-based, human; settings: 1 μM CPT-11 for 72 h
wt-p53 HT29-A4 cells [5] = settings: 1 μM CPT-11 for 72 h, synchronized cells
Procedure: as §1, §2

[6] = tested on: wt-p53 HT29-A4 xenografts; assay: Antitumor effects on xenografts in nude mice; format: in vivo, Swiss nu/nu mice; settings: for TGI, tumor growth inhibition: at sacrifice of first control mouse
[7] = CPT-11 40 mg/kg/day i.p., 8 mice per group

Compound: CC[C@H](CO)Nc1nc(NCc2ccccc2)c2ncn(C(C)C)c2n1 [roscovitine, 6-benzylamino-2-[(R)-1-ethyl-2-hydroxyethylamino]-9-isopropylpurine]
- MTD (in vivo): 400 mg/kg/day
- tolerance [1]: well tolerated
- antitumour activity as single agent ([2]; 400 mg/kg/day for up to six weeks): did not show antitumour activity
- CR nb (complete regression) [2]: 0
- Cures nb (tumour-free mice at end) [2]: 0
- PR nb (partial response) [2]: 0
- TGI % (day) [2]: 30.4%
- Calc growth delay (TGD treated − TGD control) [2]: 3 days
- Fraction T/C (treated RTV/control RTV × 100) [2]: 69.6

Compound: CCc1c2c(nc3ccc(OC(=O)N4CCC(N5CCCCC5)CC4)cc13)-c1cc3c(c(=O)n1C2)COC(=O)[C@]3(O)CC [CPT-11, irinotecan]
- cell cycle blockage (wt-p53 HT29-A4 cells [3]): blocked in early S phase
- apoptosis (PARP p85 fragment, caspase-3 activation) (wt-p53 HT29-A4 cells [4]): increased apoptosis
- cell proliferation versus untreated cells and mut-p53 cells (wt-p53 HT29-A4 cells [5]): significantly decreased cell proliferation
- Growth delay (treated/control TGT difference) ([6]; CPT-11 10 mg/kg/day i.p.): 10 days
- No. PR (partial response) ([6]; CPT-11 10 mg/kg/day i.p., 10 mice per group): 8
- TGI, tumor growth inhibition ([6]; CPT-11 10 mg/kg/day i.p.): 60%
- Growth delay (treated/control TGT difference) ([6]; CPT-11 40 mg/kg/day i.p.): 22 days
- No. PR (partial response) [6, 7]: 7
- No. cures (tumor-free mice at end of experiment) [6, 7]: 1
- TGI, tumor growth inhibition ([6]; CPT-11 40 mg/kg/day i.p., 40 mg/kg/day): 87% and 86%
- survival score of mice (tumors reaching 2000 mm3 as a function of time) ([6]; CPT-11 at both doses (10 and 40 mg/kg/day)): significantly increased the survival score
- CR nb (complete regression) [2]: 0
- Cures nb (tumour-free mice at end) [2]: 0
- PR nb (partial response) [2]: 0
- response of mut-p53 xenografts to CPT-11 ([2]; CPT-11 10 and 40 mg/kg/day i.p., data not shown): no response
- TGI % (day) [2]: 61.6%
- Calc growth delay (TGD treated − TGD control) [2]: 12.6 days
- Fraction T/C (treated RTV/control RTV × 100) [2]: 38.4
